Literature values, collected in patent US20070105756A1 (priority 2005, published 2007).

System: sensitive individuals
Conditions: oral route

NCCc1c[nH]cn1 [histamine]
histamine concentration known to be biologically active: > 5 nM
